How the values were obtained:
[1] = target: T1, Ras farnesyl transferase (Homo sapiens, UniProt P49354+P49356); experiment: In vitro inhibitory activity for Ras farnesyl transferase, H-Ras substrate; assay type: biochemical
T1 construct: made in house
Procedure: In the present experiment, Ras farnesyl transferase produced by genetic recombination techniques according to the improved Pompliano's method (Pompliano et al., Biochemistry, 1992, 31, 3800) was used, and Ras substrate (Ras-CVLS) protein described in Korean Patent Appln. No. 97-14409 was used after it has been purified according to the known method (see, Chung et al., Biochimica et Biophysica Acta, 1992, 278, 1129).
The enzyme reaction was performed in 50 μl of 50 mM Sodium HEPES buffer solution containing 25 mM of potassium chloride, 25 mM of magnesium chloride, 10 mM of DTT and 50 μM of zinc chloride. 1.5 μM of Ras substrate protein, 0.15 μM of tritium-farnesylpyrophosphate and 4.5 nM of farnesyl transferase were used.
More specifically, in the initial step, farnesyl transferase was added to the above buffer solution, reaction was maintained for 30 minutes at 37° C. and then the reaction was stopped by adding 1 ml of ethanol solution containing 1M HCl. The formed precipitates were adsorbed to GF/B filter using Hopper harvestor(Hopper #FH 225V) for filter-binding, washed with ethanol, and then radioactivity of the dried filter was measured using LKB β counter. Enzyme titer was measured in the unsaturated state of substrate where the concentrations of Ras substrate protein and farnesyl transferase have quantitative relationship. The compound according to the present invention dissolved in dimethyl sulfoxide (DMSO) was added to the reaction solution in an amount of less than 5% of the total reaction solution, and then the enzyme inhibitory activity thereof was measured. The enzyme inhibitory activity was represented by percentage of the amount of farnesyl incorporated into the Ras substrate protein in the presence of the test compound to that in the absence of the test compound. IC50 of the test compound was defined as the concentration at which 50% of the enzyme activity was inhibited.

[2] = target: T1, Ras farnesyl transferase; experiment: In vitro inhibitory activity for Ras farnesyl transferase, K-Ras substrate; assay type: biochemical
[3] = target: T2, Ras farnesyl transferase (Rattus norvegicus, UniProt Q02293+Q04631); experiment: In vivo (cellular) inhibitory activity for Ras farnesyl transferase, Rat2 cell line which expresses C-Harvey-Ras protein; assay type: cell-based
T2 construct: endogenous in cells; host or cells: Rat2 fibroblasts transformed with H-Ras or with an H-Ras/K-Ras C-terminus fusion
Procedure: (§1) In the present experiment, Rat2 cell line which expresses C-Harvey-Ras protein having transforming activity and Rat2 cell line (Korean patent application No. 97-14409) which is transformed with fused protein of H-Ras substituted with polybasic lysine domain at C-terminus of K-Ras were used. The experiment was performed by the modified Declue's method (Declue. J. E. et al., Cancer Research, 1991, 51, 712). Hereinafter, the experimental method will be described in more detail.
(§2) 3×10^5 cells of transformed Rat2 fibroblast cell line were sprayed on 60 mm cell cultivation dish and cultivated for 48 hours in a cell incubator at 37° C. and after 50% or more of density was reached, it was treated with the test compounds. The compound according to the present invention dissolved in dimethylsulfoxide (DMSO) was used. 1% concentration of dimethylsulfoxide was used in both control and test groups. After 4 hours from the treatment with the compound, methionine labeled with 150 μCi of radioactive isotope [^35S] per 1 ml of medium was added and after cultivating for 20 hours, the cells were, washed with physiological saline water. The cells were lysed using 1 ml of cold cell lysis buffer solution (50 mM of Sodium HEPES buffer solution containing 5mM of magnesium chloride, 1 mM of DTT, 1% NP 40, 1 mM of EDTA, 1 mM of PMSF, 2 μM of leupeptin, 2 μM of pepstatin A and 2 μM of antipain) and the supernatant wherein the cells were lysed was obtained by high-velocity centrifugation of 12,000 g×5 minutes. The amount of radioisotope in the supernatant was measured and standardized to obtain a quantitative result in immunoprecipitation reaction and then, Y13-259, a monoclonal antibody specifically binding to Ras protein (Furth, M. E. et al., J. Virol, 1982, 43, 294) was added and reacted for 15 hours at 4° C. Protein A(combined with goat anti-murine immunoglobulin antibody)-agarose suspension was added to the solution and reacted for 1 hour at 4° C. and then, to remove the unspecific binding product, immunoprecipitates were washed with a buffer solution (50 mM Tris chloride buffer solution containing 50 mM of sodium chloride, 0.5% of sodium dioxycolate, 0.5% of NP 40 and 0.1% of SDS). The precipitates were added to a buffer solution for electrophoresis and boiled and then, electrophoresis was performed using 13.5% of SDS polyacrylamide gel. After electrophoresis, the gel was fixed and dried. Then, the gel was exposed to X-ray film, developed printed. From the result of the experiment, intensities of band of in combined with or without farnesyl of Ras protein were measured, the concentration of the test compound inhibiting 50% of farnesyl bonding was defined as […], an in vivo Ras farnesyl transferase inhibitory activity.

[4] = target: T2, Ras farnesyl transferase; experiment: In vivo (cellular) inhibitory activity for Ras farnesyl transferase, Rat2 cell line transformed with fused protein of H-Ras substituted with polybasic lysine domain at C-terminus of K-Ras; assay type: cell-based
Procedure: as §1, §2

[5] = recombinant farnesyl transferase 4.5 nM, Ras substrate protein 1.5 μM, tritium-farnesylpyrophosphate 0.15 μM, 30 minutes at 37° C., read-out: H-Ras IC50
[6] = in vitro farnesyl transferase assay, K-Ras, read-out: K-Ras IC50
[7] = Rat2 cell line expressing C-Harvey-Ras, concentration inhibiting 50% of farnesyl bonding of Ras protein, read-out: H-Ras CIC50
[8] = Rat2 cell line transformed with H-Ras fused with polybasic lysine domain of K-Ras C-terminus, concentration inhibiting 50% of farnesyl bonding, read-out: K-Ras CIC50

Compound | IC50 [1, 5] [nM] | IC50 [2, 6] [nM] | IC50 [3, 7] [nM] | IC50 [4, 8] [µM] | IC50 [1] [nM] | IC50 [2] [nM] | IC50 [3] [nM] | IC50 [4] [µM]
O=C(c1cccs1)c1cn(Cc2c[nH]cn2)cc1-c1cccc2ccccc12 [Compound 44, 1-(1H-Imidazol-4-yl)methyl-4-(naphthalen-1-yl)-3-(thiophen-2-yl)carbonyl-1H-pyrrole] | 250 | 100 to 10000 | 1000 to 50000 | 10 to 100 |  |  |  | 
COCCN(C)C(=O)c1cn(Cc2cncn2[C@@H](C)c2ccccc2)cc1-c1cccc2ccccc12 [Compound 11] | 4 | 8 | 25 | 10 to 50 |  |  |  | 
CN1CCN(C(=O)c2cn(Cc3cncn3CCCc3ccccc3)cc2-c2cccc3ccccc23)CC1 [Compound 28] | 1 | 2 | 20 | 10 to 30 |  |  |  | 
O=C(c1ccc(Br)cc1)c1cn(Cc2c[nH]cn2)cc1-c1cccc2ccccc12 [Compound 49] | 30 | 485 | 700 | < 20 |  |  |  | 
CN1CCN(C(=O)c2cn(Cc3cncn3Cc3cccc4ccccc34)cc2-c2cccc3ccccc23)CC1 [Compound 7, 3-(4-Methylpiperazin-1-yl)carbonyl-4-(naphthalen-1-yl)-1-[1-(naphthalen-1-ylmethyl)-1H-imidazol-5-ylmethyl]-1H-pyrrole] | 0.6 | 2.2 | 25 | 10 to 50 |  |  |  | 
COCCN(C)C(=O)c1cn(Cc2cncn2CCc2ccccc2F)cc1-c1cccc2ccccc12 [Compound 21, 1-[1-(2-Fluoro)phenethyl-1H-imidazol-5-yl]methyl-3-[N-(2-methoxyethyl)-N-methyl]carbamoyl-4-(naphthalen-1-yl)-1H-pyrrole] | 1 | 1 | 21 | 10 to 50 |  |  |  | 
N#Cc1ccc(Cn2cncc2Cn2ccc(C(=O)c3cccc4ccccc34)c2)cc1 [Compound 139, 1-[1-(4-Cyanobenzyl)-1H-imidazol-5-yl]methyl-3-(naphthalen-1-yl)carbonyl-1H-pyrrole] |  |  |  |  | 5 | 37000 | 70 | 7
O=C(c1cn(Cc2cncn2Cc2ccc(Br)cc2)nc1-c1cccc2ccccc12)N1CCOCC1 [Compound 160, 1-[1-(4-Bromobenzyl)-1H-imidazol-5-ylmethyl]-4-(morpholin-4-yl)carbonyl-3-(naphthalen-1-yl)-1H-pyrazole] | 300 | 3000 | 1500 | 40 |  |  |  | 
O=C(c1ccc(F)cc1F)c1cn(Cc2c[nH]cn2)cc1-c1cccc2ccccc12 [Compound 59] | 570 | 100 to 10000 | 1000 to 50000 | 10 to 100 |  |  |  | 
O=C(c1ccc(Cl)cc1Cl)c1cn(Cc2c[nH]cn2)c(Cc2ccccc2)c1-c1cccc2ccccc12 [Compound 72] | 50 | 100 to 10000 | 1000 to 50000 | 10 to 100 |  |  |  | 
COCCN(C)C(=O)c1cn(Cc2cncn2C)cc1-c1cccc2ccccc12 [Compound 114, 3-[N-(2-Methoxyethyl)-N-methyl]carbamoyl-1-(1-methyl-1H-imidazol-5-yl)methyl-4-(naphthalen-1-yl)-1H-pyrrole] | 1 | 100 | 15 | < 100 |  |  |  | 
CN1CCN(C(=O)c2cn(Cc3cncn3CCc3ccc(F)cc3)cc2-c2cccc3ccccc23)CC1 [Compound 36, 1-[1-(4-Fluoro)phenethyl-1H-imidazol-5-yl]methyl-3-[4-methylpiperazin-1-yl]carbonyl-4-(naphthalen-1-yl)-1H-pyrrole] | 1 | 2 | 25 | 10 to 50 |  |  |  | 
COCCN(C)C(=O)c1cn(Cc2cncn2CCc2ccc(Cl)cc2)cc1-c1cccc2ccccc12 [Compound 39, 1-[1-(4-Chloro)phenethyl-1H-imidazol-5-yl]methyl-3[N-(2-methoxyethyl)-N-methyl]carbamoyl-4-(naphthalen-1-yl)-1H-pyrrole] | 2 | 3 | 20 | 10 to 50 |  |  |  | 
O=C(c1cn(CCCc2c[nH]cn2)cc1-c1cccc2ccccc12)N1CCOCC1 [Compound 109] | 8600 | 1000 to 50000 | 1000 to 50000 | 10 to 100 |  |  |  | 
CN1CCN(C(=O)c2cn(Cc3cncn3CCc3cccc(Cl)c3)cc2-c2cccc3ccccc23)CC1 [Compound 26, 1-[1-(3-Chloro)phenethyl-1H-imidazol-5-yl]methyl-3-[4-methylpiperazin-1-yl]carbonyl-4-(naphthalen-1-yl)-1H-pyrrole] | 2 | 3 | 15 | 10 to 50 |  |  |  | 
O=C(c1cn(Cc2c[nH]cn2)cc1-c1ccc2c3c(cccc13)CC2)N1CCOCC1 [Compound 97] | 12000 | 10000 to 100000 | 10000 to 100000 | 10 to 100 |  |  |  | 
CN1CCN(C(=O)c2cn(Cc3cncn3Cc3ccc4c(c3)OCO4)cc2-c2cccc3ccccc23)CC1 [Compound 3, 1-[1-(3,4-Methylenedioxybenzyl)-1H-imidazol-5-ylmethyl]-3-(4-methylpiperazin-1-yl)carbonyl-4-(naphthalen-1-yl)-1H-pyrrole] | 1 | 2.4 | 25 | 15 |  |  |  | 
O=C(c1cn(Cc2c[nH]cn2)cc1-c1cccc2ccccc12)N1CCCCC1 [Compound 84] | 720 | 1830 | 1000 to 50000 | 10 to 100 |  |  |  | 
COCCN(C)C(=O)c1cn(Cc2cncn2CC2CCCCC2)cc1-c1cccc2ccccc12 [Compound 116, 1-(1-Cyclohexylmethyl-1H-imidazol-5-yl)methyl-3-[N-(2-methoxyethyl)-N-methyl]carbamoyl-4-(naphthalen-1-yl)-1H-pyrrole] | 4 | 62 | 30 | < 50 |  |  |  | 
Cc1ccc(Cn2cncc2Cn2cc(C(=O)N3CCN(C)CC3)c(-c3cccc4ccccc34)c2)cc1 [Compound 136] | 1.6 | 2.4 | 25 | 10 to 50 |  |  |  | 
Cc1ccc(C(=O)c2cn(Cc3c[nH]cn3)cc2-c2cn(C)c3ccccc23)cc1 [Compound 70] | 210 | 100 to 10000 | 1000 to 50000 | 10 to 100 |  |  |  | 
Cn1cnc(Cn2cc(C(=O)c3ccc(Oc4ccccc4)cc3)c(-c3cccc4ccccc34)c2)c1 [Compound 79, 1-(1-Methyl-1H-imidazol-4-yl)methyl-4-(naphthalen-1-yl)-3-(4-phenoxybenzoyl)-1H-pyrrole] | 5 | 100 | 100 | > 50 |  |  |  | 
